The test system of assay [1] is TNF-α expressing splenic cells. As to conditions: spleens of rats, given orally in drinking solution. As to the method:
To identify and evaluate immune cells in splenic tissues, a flow cytometry-based assay was employed. Buffering capacity and pH were determined by titration of the solutions with HCl.
To identify and evaluate immune cells in splenic tissues, a flow cytometry-based assay was used.

The test system of assay [2] is vascular endothelial function. To be noted: in vivo, po.

For `O=C([O-])O.[Na+]` [NaHCO3, sodium bicarbonate], the “number of TNF-α (inflammatory) expressing cells” value in assay [1] is listed as “significantly reduced”. Moreover, in assay [2], the FMD entry was “improves” and the FMD/Shear result was “improves”.

For the origin of these results see patent publication US11324774B2, “Compositions of oral alkaline salts and metabolic acid inducers and uses thereof” (Augusta University Research Institute, Inc., priority 2018, dated 2022).
